Data: PMC11062906 (Nature, 2024)
Where “and” joins values, the source holds several entries; their conditions need not be identical. Equal values may be shown once.

Assays:
BmGr9 Q443E = BmGr9 Q443E (Bombyx mori, UniProt B3GTD7, Q443E); assay: GCaMP calcium flux assay, BmGr9 Q443E; format: cell-based
BmGr9 Q443D_Q445R = BmGr9 Q443D_Q445R (Bombyx mori, UniProt B3GTD7, Q443D/Q445R); assay: GCaMP calcium flux assay, BmGr9 Q443D_Q445R; format: cell-based; details: 95% CI in parentheses
BmGr9 Q443N = assay: GCaMP calcium flux assay, BmGr9 Q443N; format: cell-based, Bombyx mori
BmGr9 Q351N = BmGr9 Q351N (Bombyx mori, UniProt B3GTD7, Q351N); assay: GCaMP calcium flux assay, BmGr9 Q351N; format: cell-based
BmGr9 Y332A = BmGr9 Y332A (Bombyx mori, UniProt B3GTD7, Y332A); assay: GCaMP calcium flux assay, BmGr9 Y332A; format: cell-based
BmGr9 D165A = assay: GCaMP calcium flux assay, BmGr9 D165A; format: cell-based, Bombyx mori
BmGr9 H358A = BmGr9 H358A (Bombyx mori, UniProt B3GTD7, H358A); assay: GCaMP calcium flux assay, BmGr9 H358A; format: cell-based
BmGr9 = BmGr9 (Bombyx mori, UniProt B3GTD7); assay: Intrinsic tryptophan fluorescence of detergent-solubilized purified BmGr9; format: binding
BmGr9 F333A = assay: GCaMP calcium flux assay, BmGr9 F333A; format: cell-based, Bombyx mori
BmGr9 Q443D_Q445K = BmGr9 Q443D_Q445K (Bombyx mori, UniProt B3GTD7, Q443D/Q445K); assay: GCaMP calcium flux assay, BmGr9 Q443D_Q445K; format: cell-based
BmGr9 Y190F = BmGr9 Y190F (Bombyx mori, UniProt B3GTD7, Y190F); assay: GCaMP calcium flux assay, BmGr9 Y190F; format: cell-based; details: 95% CI in parentheses
BmGr9 F444A = assay: GCaMP calcium flux assay, BmGr9 F444A; format: cell-based, Bombyx mori
BmGr9 F189Y = BmGr9 F189Y (Bombyx mori, UniProt B3GTD7, F189Y); assay: GCaMP calcium flux assay, BmGr9 F189Y; format: cell-based
BmGr9 R86A = assay: GCaMP calcium flux assay, BmGr9 R86A; format: cell-based, Bombyx mori
BmGr9 D99N = assay: GCaMP calcium flux assay, BmGr9 D99N; format: cell-based, Bombyx mori
BmGr9 F333Y = assay: GCaMP calcium flux assay, BmGr9 F333Y; format: cell-based, Bombyx mori
BmGr9 D99A = assay: GCaMP calcium flux assay, BmGr9 D99A; format: cell-based, Bombyx mori
BmGr9 Y332L = assay: GCaMP calcium flux assay, BmGr9 Y332L; format: cell-based, Bombyx mori
BmGr9 T330S = BmGr9 T330S (Bombyx mori, UniProt B3GTD7, T330S); assay: GCaMP calcium flux assay, BmGr9 T330S; format: cell-based
BmGr9 R86K = BmGr9 R86K (Bombyx mori, UniProt B3GTD7, R86K); assay: GCaMP calcium flux assay, BmGr9 R86K; format: cell-based
BmGr9 D165E = assay: GCaMP calcium flux assay, BmGr9 D165E; format: cell-based, Bombyx mori
BmGr9 Q445R = assay: GCaMP calcium flux assay, BmGr9 Q445R; format: cell-based, Bombyx mori
BmGr9 W354F = assay: GCaMP calcium flux assay, BmGr9 W354F; format: cell-based, Bombyx mori
BmGr9 W193F = assay: GCaMP calcium flux assay, BmGr9 W193F; format: cell-based, Bombyx mori
BmGr9 H358Q = assay: GCaMP calcium flux assay, BmGr9 H358Q; format: cell-based, Bombyx mori
BmGr9 Y190A = assay: GCaMP calcium flux assay, BmGr9 Y190A; format: cell-based, Bombyx mori
BmGr9 Q443A = assay: GCaMP calcium flux assay, BmGr9 Q443A; format: cell-based, Bombyx mori
BmGr9 Q445A = BmGr9 Q445A (Bombyx mori, UniProt B3GTD7, Q445A); assay: GCaMP calcium flux assay, BmGr9 Q445A; format: cell-based
[1] = test system: HEK293 cells transfected with GCaMP only; assay: Cell-based GCaMP calcium flux assay, GCaMP-only control cells
BmGr9 Y332Q = assay: GCaMP calcium flux assay, BmGr9 Y332Q; format: cell-based, Bombyx mori
BmGr9 Q445K = assay: GCaMP calcium flux assay, BmGr9 Q445K; format: cell-based, Bombyx mori
BmGr9 I440A = assay: GCaMP calcium flux assay, BmGr9 I440A; format: cell-based, Bombyx mori
BmGr9 T330V = BmGr9 T330V (Bombyx mori, UniProt B3GTD7, T330V); assay: GCaMP calcium flux assay, BmGr9 T330V; format: cell-based
BmGr9 F189A = assay: GCaMP calcium flux assay, BmGr9 F189A; format: cell-based, Bombyx mori
BmGr9 Q443E_Q445R = BmGr9 Q443E_Q445R (Bombyx mori, UniProt B3GTD7, Q443E/Q445R); assay: GCaMP calcium flux assay, BmGr9 Q443E_Q445R; format: cell-based
BmGr9 Q443E_Q445A = BmGr9 Q443E_Q445A (Bombyx mori, UniProt B3GTD7, Q443E/Q445A); assay: GCaMP calcium flux assay, BmGr9 Q443E_Q445A; format: cell-based
BmGr9 F333L = assay: GCaMP calcium flux assay, BmGr9 F333L; format: cell-based, Bombyx mori
BmGr9 Q351A = BmGr9 Q351A (Bombyx mori, UniProt B3GTD7, Q351A); assay: GCaMP calcium flux assay, BmGr9 Q351A; format: cell-based
BmGr9 Q351A, sequence (B3GTD7 entry or part of it Q351A): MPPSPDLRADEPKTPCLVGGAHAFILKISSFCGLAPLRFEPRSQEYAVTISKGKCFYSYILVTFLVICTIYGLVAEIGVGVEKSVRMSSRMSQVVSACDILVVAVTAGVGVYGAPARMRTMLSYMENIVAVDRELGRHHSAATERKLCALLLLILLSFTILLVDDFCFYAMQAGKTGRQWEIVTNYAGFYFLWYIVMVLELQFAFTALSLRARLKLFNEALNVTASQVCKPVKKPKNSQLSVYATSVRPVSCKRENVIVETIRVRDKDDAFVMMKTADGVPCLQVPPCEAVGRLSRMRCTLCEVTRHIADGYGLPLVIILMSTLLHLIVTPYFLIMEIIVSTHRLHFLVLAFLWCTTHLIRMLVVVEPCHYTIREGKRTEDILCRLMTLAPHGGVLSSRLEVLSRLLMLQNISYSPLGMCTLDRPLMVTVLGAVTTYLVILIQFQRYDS

BmGr9 Q445A, sequence (B3GTD7 entry or part of it Q445A): as the sequence (B3GTD7 entry or part of it Q351A) above, with A351Q, Q445A counted along it
BmGr9, sequence (B3GTD7 entry or part of it): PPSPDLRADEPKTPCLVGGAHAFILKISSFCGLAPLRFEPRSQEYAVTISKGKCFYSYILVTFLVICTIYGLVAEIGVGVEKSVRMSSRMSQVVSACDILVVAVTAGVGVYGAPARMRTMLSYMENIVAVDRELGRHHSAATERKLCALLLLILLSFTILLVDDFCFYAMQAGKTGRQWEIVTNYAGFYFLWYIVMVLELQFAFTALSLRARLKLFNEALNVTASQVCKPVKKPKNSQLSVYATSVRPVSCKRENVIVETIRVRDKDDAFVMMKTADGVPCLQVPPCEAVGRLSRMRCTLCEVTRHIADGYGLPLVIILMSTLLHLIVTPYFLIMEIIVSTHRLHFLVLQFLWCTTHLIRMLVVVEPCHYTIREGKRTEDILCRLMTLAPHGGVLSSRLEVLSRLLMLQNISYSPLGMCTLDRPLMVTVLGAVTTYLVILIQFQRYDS
BmGr9 Q443E, sequence (B3GTD7 entry or part of it Q443E): as the sequence (B3GTD7 entry or part of it Q351A) above, with A351Q, Q443E counted along it
BmGr9 T330S, sequence (B3GTD7 entry or part of it T330S): as the sequence (B3GTD7 entry or part of it Q351A) above, with T330S, A351Q counted along it
BmGr9 Q443E_Q445A, sequence (B3GTD7 entry or part of it Q443E/Q445A): as the sequence (B3GTD7 entry or part of it Q351A) above, with A351Q, Q443E, Q445A counted along it
BmGr9 Y332A, sequence (B3GTD7 entry or part of it Y332A): as the sequence (B3GTD7 entry or part of it Q351A) above, with Y332A, A351Q counted along it
BmGr9 Q443D_Q445K, sequence (B3GTD7 entry or part of it Q443D/Q445K): as the sequence (B3GTD7 entry or part of it Q351A) above, with A351Q, Q443D, Q445K counted along it
BmGr9 Q443E_Q445R, sequence (B3GTD7 entry or part of it Q443E/Q445R): as the sequence (B3GTD7 entry or part of it Q351A) above, with A351Q, Q443E, Q445R counted along it
BmGr9 F189Y, sequence (B3GTD7 entry or part of it F189Y): as the sequence (B3GTD7 entry or part of it Q351A) above, with F189Y, A351Q counted along it
BmGr9 T330V, sequence (B3GTD7 entry or part of it T330V): as the sequence (B3GTD7 entry or part of it Q351A) above, with T330V, A351Q counted along it
BmGr9 Q351N, sequence (B3GTD7 entry or part of it Q351N): as the sequence (B3GTD7 entry or part of it Q351A) above, with A351N counted along it
BmGr9 R86K, sequence (B3GTD7 entry or part of it R86K): as the sequence (B3GTD7 entry or part of it Q351A) above, with R86K, A351Q counted along it
BmGr9 Q443D_Q445R, sequence (B3GTD7 entry or part of it Q443D/Q445R): as the sequence (B3GTD7 entry or part of it Q351A) above, with A351Q, Q443D, Q445R counted along it
BmGr9 Y190F, sequence (B3GTD7 entry or part of it Y190F): as the sequence (B3GTD7 entry or part of it Q351A) above, with Y190F, A351Q counted along it
BmGr9 H358A, sequence (B3GTD7 entry or part of it H358A): as the sequence (B3GTD7 entry or part of it Q351A) above, with A351Q, H358A counted along it

## O=C(CO)[C@@H](O)[C@H](O)[C@H](O)CO [D-fructose]
BmGr9 Q443E
  EC50: 1.32 mM
BmGr9 Q443E; Gln443 to Glu
  apparent affinity relative to wild-type: increased apparent affinity
BmGr9 Q443E; Q443E
  Hill Slope: ~2.57
BmGr9 Q443E; Q443E, 100 mM D-fructose
  Fluorescence change relative to wild-type BmGr9: more active than wild-type BmGr9
BmGr9 Q443D_Q445R
  Hill Slope: 0.31 (0.13 to 1.13)
BmGr9 Q443N
  activation by D-fructose (Fmax, Hill slope, EC50 fit): no activity
BmGr9 Q351N
  EC50: ~8 mM
BmGr9 Q351N; Q351N
  Hill Slope: ~0.71
BmGr9 Y332A
  EC50: 8.3 mM
BmGr9 Y332A; Y332A, 95% CI in parentheses
  Hill Slope: 0.99 (0.37 to 2.17)
BmGr9 D165A
  activation by D-fructose (Fmax, Hill slope, EC50 fit): no activity
BmGr9 H358A
  Hill Slope: ~1.06
BmGr9; KD (apparent affinity, tryptophan fluorescence), purified BmGr9 in digitonin, n = 4, 95% CI in parentheses
  Kd: 16 mM and 15.8 mM
BmGr9; saturating D-fructose, maximum near 330 nm without sugar
  Trp fluorescence emission maximum: 324 nm
BmGr9 F333A
  activation by D-fructose (Fmax, Hill slope, EC50 fit): no activity
BmGr9 Q443D_Q445K
  EC50: ~18 mM
BmGr9 Q443D_Q445K; Q443D_Q445K, 95% CI in parentheses
  Hill Slope: 1.18 (0.24 to 2.87)
BmGr9 Y190F
  Hill Slope: 0.98 (0.56 to 2.07)
BmGr9 F444A
  activation by D-fructose (Fmax, Hill slope, EC50 fit): no activity
BmGr9 F189Y
  EC50: ~100 µM
BmGr9 F189Y; F189Y, 95% CI in parentheses
  Hill Slope: 1.05 (0.44 to 2.15)
BmGr9 R86A
  activation by D-fructose (Fmax, Hill slope, EC50 fit): no activity
BmGr9 D99N
  activation by D-fructose (Fmax, Hill slope, EC50 fit): no activity
BmGr9 F333Y
  activation by D-fructose (Fmax, Hill slope, EC50 fit): no activity
BmGr9 D99A
  activation by D-fructose (Fmax, Hill slope, EC50 fit): no activity
BmGr9 Y332L
  activation by D-fructose (Fmax, Hill slope, EC50 fit): no activity
BmGr9 T330S
  EC50: ~100 mM
BmGr9 T330S; T330S
  Hill Slope: ~3.03
BmGr9 R86K
  EC50: 10.4 mM
BmGr9 R86K; R86K
  Hill Slope: ~2.45
BmGr9 D165E
  F max: ~0.12
  activation by D-fructose (printed in Hill Slope column): no activity
BmGr9 Q445R
  activation by D-fructose (Fmax, Hill slope, EC50 fit): no activity
BmGr9 W354F
  activation by D-fructose (Fmax, Hill slope, EC50 fit): no activity
BmGr9 W193F
  activation by D-fructose (Fmax, Hill slope, EC50 fit): no activity
BmGr9 H358Q
  F max: ~0.14
  Hill Slope: ~1.43
BmGr9 Y190A
  activation by D-fructose (Fmax, Hill slope, EC50 fit): no activity
BmGr9 Q443A
  activation by D-fructose (Fmax, Hill slope, EC50 fit): no activity
BmGr9 Q445A
  EC50: 2.01 mM
BmGr9 Q445A; Q445A
  Hill Slope: ~3.78
BmGr9 Q445A; Q445A, 100 mM D-fructose
  Fluorescence change relative to wild-type BmGr9: more active than wild-type BmGr9
[1]
  Hill Slope: ~2.37
[1]; ~ = CI not determined
  F max: ~0.20
BmGr9 Y332Q
  activation by D-fructose (Fmax, Hill slope, EC50 fit): no activity
BmGr9 Q445K
  activation by D-fructose (Fmax, Hill slope, EC50 fit): no activity
BmGr9 I440A
  activation by D-fructose (Fmax, Hill slope, EC50 fit): no activity
BmGr9 T330V
  EC50: ~98 mM
BmGr9 T330V; T330V
  Hill Slope: ~6.22
BmGr9 F189A
  activation by D-fructose (Fmax, Hill slope, EC50 fit): no activity
BmGr9 Q443E_Q445R
  EC50: 4.07 mM
BmGr9 Q443E_Q445R; Q443E_Q445R, 95% CI in parentheses
  Hill Slope: 2.02 (1.27 to 3.33)
BmGr9 Q443E_Q445A
  EC50: 1.53 mM
BmGr9 Q443E_Q445A; Q443E_Q445A, 95% CI in parentheses
  Hill Slope: 1.58 (0.69 to 6.42)
BmGr9 F333L
  activation by D-fructose (Fmax, Hill slope, EC50 fit): no activity
BmGr9 Q351A
  EC50: 3.9 mM
BmGr9 Q351A; Q351A, 95% CI in parentheses
  Hill Slope: 1.89 (0.60 to 5.26)
